The values that follow come from PubChem BioAssay (NCI).

What all share (assay): NCI anticancer screen, dose series, 48 h
Assay [1] concerns HOP-62 NSCLC.
Assay [2] concerns SNB-19 CNS.
In assay [3] the test system is A498 renal.
Assay [4] has as its system NCI-H23 lung.
For assay [5], the system named is DU-145 prostate.
Assay [6] has as its system HCT-15 colon.
Assay [7] deals with RPMI-8226 leukemia.
The test system of assay [8] is NCI-H460 lung.
In assay [9] the test system is MDA-MB-435.
In assay [10] the test system is OVCAR-8 ovarian.

“And” between values parts separate entries of the source, which are not always exact repeats. Equal values may be shown once.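 Briefly, cells in 96-well plates were exposed to five compound concentrations for 48 h, and endpoints were estimated by linear interpolation. GI50 marks 50% less growth. The concentration for full growth arrest is given as TGI.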

With `N#Cc1c(N)nc(N2CCOCC2)c(C#N)c1-c1ccc(Cl)cc1`, the GI50 in [1] was greater than 100000 nM; in [2], 28100 nM; in [3], 8110 nM; in [4] it was 73500 nM; in assay [5], 75000 nM; in [6], 26900 nM. Further, the GI50 in assay [7] is 26500 nM; in assay [8], 33200 nM; in [9], 65300 nM; in assay [10], 28000 nM. In addition, the TGI is greater than 100000 nM in assay [1]; greater than 100000 nM in [2]; 36300 nM in assay [3]; greater than 100000 nM in assay [4]; greater than 100000 nM in assay [5]; greater than 100000 nM in [6]. The TGI in [7], in [8], in assay [9] and in assay [10] was greater than 100000 nM each time.
Consider `COc1ccc(-c2nnc(SCC(=O)Nc3ccc(/C(C)=N\O)cc3)n2-c2ccccc2)cc1OC`, for which the GI50 in assay [1] was 2060 nM; in assay [2] it was 6430 nM; in assay [3], 2720 nM; in assay [4] it was 12900 nM; in assay [5], 24900 nM; in [6], greater than 100000 nM. Moreover, the GI50 is greater than 100000 nM in [7], greater than 100000 nM in [8], greater than 100000 nM in [9] and 7360 nM in assay [10]. For the same compound, the TGI in assay [1] is 6800 nM; in assay [2] it was greater than 100000 nM; in assay [3], 46100 nM; in assay [4] it was greater than 100000 nM; in assay [5] it was greater than 100000 nM; in [6], greater than 100000 nM. Besides, the TGI in assay [7], in [8], in assay [9] and in assay [10] was greater than 100000 nM throughout.
As to `C=CCNCCCN1C(=O)c2ccc3c4c(ccc(c24)C1=O)C(=O)N(CCCNCC=C)C3=O`, the GI50 in assay [1] was 372 nM; in assay [2], 592 nM; in assay [3] it was 394 nM; in assay [4], 392 nM; in assay [5], 311 nM; in assay [6], 413 nM. For the same compound, the GI50 is 385 nM in assay [7], 195 nM in assay [8], 199 nM in assay [9] and 312 nM in [10]. Besides, the TGI was found to be 1720 nM in assay [1]; 1960 nM in assay [2]; 1760 nM in assay [3]; 1420 nM in assay [4]; 857 nM in [5]; 2380 nM in [6]. In addition, the TGI in [7] is 3550 nM; in [8], 448 nM; in assay [9], 434 nM; in assay [10], 2110 nM.
In the case of `COc1ccc(C/C(C)=C(\c2ccc(OCCN3CCOCC3)cc2)c2ccc(OC(=O)Cc3ccccc3)cc2)cc1`, the GI50 in [1] was 621 nM; in [2], 1300 nM; in assay [3], 462 nM; in assay [4] it was 823 nM; in [5], 1330 nM; in [6], 566 nM. Also, the GI50 in assay [7] was 531 nM; in assay [8], 713 nM; in assay [9] it was 632 nM; in [10], 1070 nM. The TGI was 1170 nM in assay [1]; 8340 nM in assay [2]; 971 nM in assay [3]; 3300 nM in assay [4]; 20400 nM in assay [5]; 1500 nM in [6]. Besides, the TGI in assay [7] was determined as 1310 nM; in assay [8] it was 1530 nM; in [9], 1340 nM; in assay [10] it was 11300 nM.
Consider `O=C1/C(=C/c2ccccc2F)CNC/C1=C\c1ccccc1F`, for which the GI50 is 530 nM and 330 nM in assay [1]; 643 nM and 1010 nM in assay [2]; 194 nM and 1520 nM in assay [3]; 693 nM and 838 nM in assay [4]; 642 nM and 710 nM in [5]; 196 nM and 291 nM in assay [6]. The GI50 in [7] is 191 nM and 220 nM; in [8], 693 nM and 458 nM; in [9], 482 nM and 472 nM; in [10], 338 nM and 369 nM. The TGI in assay [1] is 2650 nM and 1010 nM; in assay [2] it was 2660 nM and 3990 nM; in assay [3] it was 978 nM and 2980 nM; in assay [4], 1810 nM and 3270 nM; in assay [5], 2050 nM and 2010 nM; in assay [6], 511 nM and 1160 nM. Besides, the TGI in [7] is 697 nM and 563 nM; in assay [8] it was 3290 nM and 3300 nM; in assay [9], 1460 nM and 1920 nM; in assay [10], 4270 nM and 2910 nM.
As to `COc1cc(C(O)c2nc3ccccc3s2)cc(OC)c1OC` (stereo not given), the GI50 in assay [1] is 43800 nM; in [2], greater than 100000 nM; in assay [3], 3180 nM; in assay [4], 7320 nM; in [5], greater than 100000 nM; in [6], greater than 100000 nM. Moreover, the GI50 was 7900 nM in [7], 30900 nM in assay [8], 20400 nM in assay [9] and greater than 100000 nM in [10]. The TGI in assay [1], in assay [2], in assay [3], in assay [4], in assay [5] and in assay [6] was greater than 100000 nM in each case. The TGI in [7], in assay [8], in assay [9] and in [10] was greater than 100000 nM throughout.
As to `Nc1ncnc2c1ncn2CC(O)C(=O)O` (stereo not given), the TGI in assay [1], in [2], in assay [3], in assay [4], in [5] and in [6] was greater than 100000 nM throughout. The TGI in assay [7], in [8], in [9] and in assay [10] was greater than 100000 nM each time.
